In general, EC50 refers to the concentration giving half of the maximal effect.

The test system of this assay is Myotonic Dystrophy 1 affected patient fibroblasts (Coriell GM04602; 1600 CTG repeats). Nature of the assay: DM1 foci reduction assay (CAG10-Cy3 FISH, average foci per nucleus). Format: cell-based. Particulars: Homo sapiens, Fibroblast. The method, boiled down:
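Read-out is mean nuclear foci per well from CAG10-Cy3 FISH (5 nM probe, overnight 37 °C) with DAPI nuclei, 4 fields per well at 20×. Compounds ran 48 h in 8-point, 3-fold series topping at 3 μM on 1600-CTG GM04602 fibroblasts, alongside GM07492 wild-type cells.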

The mark [1] stands for this setting: DM1 fibroblasts, 48 h treatment, 8-point dose response, 3 μM top dose, read-out: Foci Reduction in Fibroblast EC50, 48 h.
[2] abbreviates: 48 h, read-out: Foci Reduction in Fibroblast EC50, 48 h (nM).

Read-outs that look alike come from different tables or passages of the source.

As for `COc1cccc(C(=O)N2CCN(C(=O)CN(CCOCCOCCOCCOCCOCCNC(=O)CCNC(=O)c3nc(NC(=O)c4cc(NC(=O)CCNC(=O)c5nc(NC(=O)CCCNC(=O)c6cc(NC(=O)c7nc(NC(=O)CCNC(=O)c8cc(NC(=O)c9nccn9C)cn8C)cn7C)cn6C)cn5C)cn4C)cn3C)c3cccc(C)c3)CC2)c1OC` [Compound 142], under setting [1], the EC50 was in the range of 100 to 500 nM.

With `CCCCN(Cc1ccc(C(=O)NO)cc1)C(=O)Nc1ccc(OCc2cn(CCOCCOCCOCCOCCOCCOCCNC(=O)CCNC(=O)c3nc(NC(=O)c4cc(NC(=O)CCNC(=O)c5nc(NC(=O)CCCNC(=O)c6cc(NC(=O)c7nc(NC(=O)CCNC(=O)c8cc(NC(=O)c9nccn9C)cn8C)cn7C)cn6C)cn5C)cn4C)cn3C)nn2)cc1` [Compound 128], the half-maximal effective concentration (EC50) under setting [1] is above 500 nM.

For the compound `CCN(CC)CCCC[C@H](NC(=O)[C@H](CC(C)C)NC(=O)[C@H](C)NC(=O)[C@H](Cc1ccccc1)NC(=O)c1ccc(C(C)(C)C)cc1)C(=O)N[C@@H](CO)C(=O)Nc1ccc(OCCOCCOCCNC(=O)CCNC(=O)c2nc(NC(=O)c3cc(NC(=O)CCNC(=O)c4nc(NC(=O)CCCNC(=O)c5cc(NC(=O)c6nc(NC(=O)CCNC(=O)c7cc(NC(=O)c8nccn8C)cn7C)cn6C)cn5C)cn4C)cn3C)cn2C)cc1` [Compound 178], under setting [2], the 50% effective concentration (EC50) is below 100 nM.

For `CCN(CC)CCCC[C@H](NC(=O)N1CC(c2cnc(CNC(=O)c3ccc(C(C)(C)C)cc3)[nH]2)C1)C(=O)N[C@@H](CO)C(=O)NCCOCCOCCOCCOCCOCCNC(=O)CCNC(=O)c1nc(NC(=O)c2cc(NC(=O)CCNC(=O)c3nc(NC(=O)CCCNC(=O)c4cc(NC(=O)c5nc(NC(=O)CCNC(=O)c6cc(NC(=O)c7nccn7C)cn6C)cn5C)cn4C)cn3C)cn2C)cn1C` [Compound 155], the EC50 under setting [2] was 100 to 500 nM.

For `CCN(CC)CCCC[C@H](NC(=O)[C@H](CC(C)C)NC(=O)[C@H](C)NC(=O)[C@H](Cc1ccccc1)NC(=O)c1ccc(C(C)(C)C)cc1)C(=O)N[C@@H](CO)C(=O)NCCOCCOCCOCCOCCOCCNC(=O)CCNC(=O)c1nc(NC(=O)c2cc(NC(=O)CCNC(=O)c3nc(NC(=O)[C@H](N)CCNC(=O)c4cc(NC(=O)c5nc(NC(=O)CCNC(=O)c6cc(NC(=O)c7nccn7C)cn6C)cn5C)cn4C)cn3C)cn2C)cn1C` [Compound 101], under setting [2], the EC50 lay in the range of 100 to 500 nM.

In the case of `CN(CCCC[C@H](NC(=O)COCCOCCNC(=O)c1ccc(C(C)(C)C)cc1)C(=O)N[C@@H](CO)C(=O)NCCOCCOCCOCCOCCOCCNC(=O)CCNC(=O)c1nc(NC(=O)c2cc(NC(=O)CCNC(=O)c3nc(NC(=O)CCCNC(=O)c4cc(NC(=O)c5nc(NC(=O)CCNC(=O)c6cc(NC(=O)c7nccn7C)cn6C)cn5C)cn4C)cn3C)cn2C)cn1C)C1CC2CCC1C2` (stereo partly shown) [Compound 68], the half-maximal effective concentration (EC50) under setting [2] fell in the range of 100 to 500 nM.

As to `CCN(CC)CCCC[C@H](NC(=O)[C@H](CC(C)C)NC(=O)[C@H](C)NC(=O)[C@H](Cc1ccccc1)NC(=O)c1ccc(C(C)(C)C)cc1)C(=O)N[C@@H](CO)C(=O)NCCOCCOCCOCCOCCOCCNC(=O)c1nc(NC(=O)CCNC(=O)c2cc(NC(=O)c3nc(NC(=O)[C@@H](CCNC(=O)c4cc(NC(=O)c5nc(NC(=O)c6cc(NC(=O)c7cccn7C)cn6C)cn5C)cn4C)NC(C)=O)cn3C)cn2C)cn1C` [Compound 109], the concentration giving a half-maximal response (EC50) under setting [2] is above 500 nM.

With `CCN(CC)CCCC[C@H](NC(=O)[C@H](CC(C)C)NC(=O)[C@H](C)NC(=O)[C@H](Cc1ccccc1)NC(=O)c1ccc(C(C)(C)C)cc1)C(=O)N[C@@H](CO)C(=O)NCCOCCOCCOCCOCCOCCOCCOCCOCCOCCOCCOCCOCCOCCOCCOCCNC(=O)CCNC(=O)c1nc(NC(=O)c2cc(NC(=O)CCNC(=O)c3nc(NC(=O)CCCNC(=O)c4cc(NC(=O)c5nc(NC(=O)CCNC(=O)c6cc(NC(=O)c7nccn7C)cn6C)cn5C)cn4C)cn3C)cn2C)cn1C` [Compound 27], under setting [2], the 50% effective concentration (EC50) is below 100 nM.

Consider `CCN(CC)CCCC[C@H](NC(C)=O)C(=O)N[C@@H](CO)C(=O)NCCOCCOCCOCCOCCOCCNC(=O)CCNC(=O)c1nc(NC(=O)c2cc(NC(=O)CCCC(=O)c3nc(NC(=O)CCCNC(=O)c4cc(NC(=O)c5nc(NC(=O)CCNC(=O)c6cc(NC(=O)c7nccn7C)cn6C)cn5C)cn4C)cn3C)cn2C)cn1C` [Compound 65], for which the EC50 under setting [2] was above 500 nM.

Take `CCN(CC)CCCC[C@H](NC(=O)[C@H](CC(C)C)NC(=O)[C@H](C)NC(=O)[C@H](Cc1ccccc1)NC(=O)c1ccc(C(C)(C)C)cc1)C(=O)N[C@@H](CO)C(=O)NCCOCCOCCOCCOCCOCCNC(=O)CCNC(=O)c1cc(NC(=O)c2nc(NC(=O)CCNC(=O)c3cc(NC(=O)c4nc(NC(=O)CCCNC(=O)c5cc(NC(=O)c6nc(NC(=O)CCNC(=O)c7cc(NC(=O)c8nccn8C)cn7C)cn6C)cn5C)cn4C)cn3C)cn2C)cn1C` [Compound 135]: the concentration giving a half-maximal response (EC50) under setting [2] is above 500 nM.

For the compound `CC(C)CN(CCCC[C@H](NC(=O)COCCOCCNC(=O)c1ccc(C(C)(C)C)cc1)C(=O)N[C@@H](CO)C(=O)NCCOCCOCCOCCOCCOCCNC(=O)CCNC(=O)c1nc(NC(=O)c2cc(NC(=O)CCNC(=O)c3nc(NC(=O)CCCNC(=O)c4cc(NC(=O)c5nc(NC(=O)CCNC(=O)c6cc(NC(=O)c7nccn7C)cn6C)cn5C)cn4C)cn3C)cn2C)cn1C)C1CC2CCC1C2` (stereo partly shown) [Compound 144], the EC50 under setting [2] is below 100 nM.

Regarding `CCN(CC)CCCC[C@H](NC(=O)[C@H](CC(C)C)NC(=O)[C@H](C)NC(=O)[C@H](Cc1ccccc1)NC(=O)c1ccc(C(C)(C)C)cc1)C(=O)N[C@@H](CO)C(=O)NCCOCCOCCOCCOCCOCC(=O)N[C@H](CCNC(=O)c1cc(NC(=O)c2nc(NC(=O)CCNC(=O)c3cc(NC(=O)c4nccn4C)cn3C)cn2C)cn1C)C(=O)Nc1cn(C)c(C(=O)Nc2cc(C(=O)NCCC(=O)Nc3cn(C)c(C(=O)Nc4cc(C(=O)NCCO)n(C)c4)n3)n(C)c2)n1` [Compound 134], the half-maximal effective concentration (EC50) under setting [2] is above 500 nM.

Turning to `CCN(CC)CCCCC(NC(=O)[C@H](CC(C)C)NC(=O)C(C)NC(=O)[C@H](Cc1ccccc1)NC(=O)c1ccc(C(C)(C)C)cc1)C(=O)N[C@@H](CO)C(=O)NCCCN(C)CCCNC(=O)CCNC(=O)c1nc(NC(=O)c2cc(NC(=O)CCNC(=O)c3nc(NC(=O)CCCNC(=O)c4cc(NC(=O)c5nc(NC(=O)CCNC(=O)c6cc(NC(=O)c7nccn7C)cn6C)cn5C)cn4C)cn3C)cn2C)cn1C` (stereo in doubt) [Compound 71], the half-maximal effective concentration (EC50) under setting [2] is above 500 nM.

`Cn1cc(CCn2c(CNCCOCCOCCNC(=O)CCNC(=O)c3nc(NC(=O)c4cc(NC(=O)CCNC(=O)c5nc(NC(=O)CCCNC(=O)c6cc(NC(=O)c7nc(NC(=O)CCNC(=O)c8cc(NC(=O)c9nccn9C)cn8C)cn7C)cn6C)cn5C)cn4C)cn3C)nc(-c3cnn(C)c3)c2-c2ccc(C#N)cc2)cn1` [Compound 171]: the EC50 under setting [1] is above 500 nM.

Regarding `Cn1cc(NC(=O)c2cc(NC(=O)c3nc(NC(=O)c4cc(NC(=O)[C@@H](N)CCNC(=O)c5nc(NC(=O)CCNC(=O)c6cc(NC(=O)c7nccn7C)cn6C)cn5C)cn4C)cn3C)cn2C)cc1C(=O)NCCOCCOCCOCCOCCOCCN1CCC(C(=O)Nc2ncc(SCc3ncc(C(C)(C)C)o3)s2)CC1` [Compound 120], the EC50 under setting [1] is above 500 nM.

Regarding `CCN(CC)CCCC[C@H](NC(=O)CNC(=O)CNC(=O)CNC(=O)c1ccc(C(C)(C)C)cc1)C(=O)N[C@@H](CO)C(=O)NCCOCCOCCOCCOCCOCCNC(=O)CCNC(=O)c1nc(NC(=O)c2cc(NC(=O)CCNC(=O)c3nc(NC(=O)CCCNC(=O)c4cc(NC(=O)c5nc(NC(=O)CCNC(=O)c6cc(NC(=O)c7nccn7C)cn6C)cn5C)cn4C)cn3C)cn2C)cn1C` [Compound 99], the concentration giving a half-maximal response (EC50) under setting [2] was below 100 nM.

`CCN(CC)CCCC[C@H](NC(=O)[C@H](CC(C)C)NC(=O)[C@H](C)NC(=O)[C@H](Cc1ccccc1)NC(=O)c1ccc(C(C)(C)C)cc1)C(=O)N[C@@H](CO)C(=O)NCCOCCOCCNC(=O)c1cc(NC(=O)c2nc(NC(=O)c3cc(NC(=O)[C@@H](N)CCNC(=O)c4nc(NC(=O)c5cc(NC(=O)c6cc(NC(=O)c7nccn7C)cn6C)cn5C)cn4C)cn3C)cn2C)cn1C` [Compound 79]: under setting [2], the EC50 is above 500 nM.

As for `CC(C)C[C@H](NC(=O)[C@H](C)NC(=O)[C@H](Cc1ccccc1)NC(=O)c1ccc(C(C)(C)C)cc1)C(=O)N[C@@H](CCCCN(C)C1CC2CCC1C2)C(=O)N[C@@H](CO)C(=O)NCCOCCOCCOCCOCCOCCNC(=O)c1cc(NC(=O)c2cc(NC(=O)c3nc(NC(=O)c4cc(NC(=O)[C@@H](N)CCNC(=O)c5nc(NC(=O)c6cc(NC(=O)c7cc(NC(=O)c8nccn8C)cn7C)cn6C)cn5C)cn4C)cn3C)cn2C)cn1C` (stereo partly shown) [Compound 58], the half-maximal effective concentration (EC50) under setting [2] was above 500 nM.

Regarding `COc1cc2nc(N3CCCCC3)nc(NC3CCN(CCOCCOCCOCCOCCOCCOCCOCCOCCOCCOCCNC(=O)CCNC(=O)c4nc(NC(=O)c5cc(NC(=O)CCNC(=O)c6nc(NC(=O)CCCNC(=O)c7cc(NC(=O)c8nc(NC(=O)CCNC(=O)c9cc(NC(=O)c%10nccn%10C)cn9C)cn8C)cn7C)cn6C)cn5C)cn4C)CC3)c2cc1OC` [Compound 193], under setting [1], the half-maximal effective concentration (EC50) was above 500 nM.

Consider `CN(CCCC[C@H](NC(=O)[C@H](CCCN1CCOCC1)NC(=O)[C@@H](NC(=O)[C@H](Cc1ccccc1)NC(=O)c1ccc(C(C)(C)C)cc1)C1CCC1)C(=O)N[C@@H](CO)C(=O)NCCOCCOCCOCCOCCOCCNC(=O)CCNC(=O)c1nc(NC(=O)c2cc(NC(=O)CCNC(=O)c3nc(NC(=O)CCCNC(=O)c4cc(NC(=O)c5nc(NC(=O)CCNC(=O)c6cc(NC(=O)c7nccn7C)cn6C)cn5C)cn4C)cn3C)cn2C)cn1C)C1CC2CCC1C2` (stereo partly shown) [Compound 149], for which, under setting [2], the concentration giving a half-maximal response (EC50) fell in the range of 100 to 500 nM.

As to `Cn1cc(NC(=O)c2cc(NC(=O)c3nc(NC(=O)c4cc(NC(=O)[C@@H](N)CCNC(=O)c5nc(NC(=O)CCNC(=O)c6cc(NC(=O)c7nccn7C)cn6C)cn5C)cn4C)cn3C)cn2C)cc1C(=O)NCCOCCOCCOCCOCCOCCOCCOCCOCCOCCOCCOCCOCCOCCOCCOCCN1CCC(C(=O)Nc2ncc(SCc3ncc(C(C)(C)C)o3)s2)CC1` [Compound 121], the EC50 under setting [1] was above 500 nM.

Consider `Cn1cc(NC(=O)c2nc(NC(=O)CCNC(=O)c3cc(NC(=O)c4nccn4C)cn3C)cn2C)cc1C(=O)NCCCC(=O)Nc1cn(C)c(C(=O)NCCC(=O)Nc2cc(C(=O)Nc3cn(C)c(C(=O)NCCC(=O)NCCOCCOCCn4cc(CCCCN(Cc5ccc(C(=O)NO)cc5)C(=O)Nc5ccccc5)nn4)n3)n(C)c2)n1` [Compound 125], for which the EC50 under setting [1] was above 500 nM.

The values are drawn from US20240166693A1, “METHODS AND COMPOUNDS FOR MODULATING MYOTONIC DYSTROPY 1” (Design Therapeutics, Inc., priority 2020, published 2024).
